Results reported in patent publication US10272126B2, “Nanoparticle-stabilized microcapsules, dispersions comprising nanoparticle-stabilized microcapsules, and method for the treatment of bacterial biofilms” (The University of Massachusetts, priority 2015, dated 2019).

Test system: NIH 3T3 fibroblast cells
Assay: Biofilm-3T3 fibroblast co-culture: mammalian cell viability (LDH cytotoxicity assay)
Assay type: cell-based
Text: Scatters and lines represent 3T3 fibroblast cell viability. Bars represent log10 of colony forming units in biofilms. The data are average of triplicates and the error bars indicate the standard deviations.
Biofilm infections within wounds interfere with the ability of the host to regenerate damaged tissue. See, e.g., Roy, S.; Elgharably, H.; Sinha, M.; Ganesh, K.; Chaney, S.; Mann, E.; Miller, C.; Khanna, S.; Bergdall, V. K.; Powell, H. M.; et al. Mixed-Species Biofilm Compromises Wound Healing by Disrupting Epidermal Barrier Function. J. Pathol. 2014, 233, 331-343. […] The co-cultures were treated with capsules for 3 hours, washed, and the viabilities of both fibroblasts and bacteria were measured. […]
Testing solutions at different concentrations were made by diluting capsules into DMEM prior to use. […] Co-cultures were then analyzed using a LDH cytotoxicity assay to determine mammalian cell viability according the manufacturer's instructions. See, e.g., Decker, T.; Lohmann-Matthes, M. L. A Quick and Simple Method for the Quantitation of Lactate Dehydrogenase Release in Measurements of Cellular Cytotoxicity and Tumor Necrosis Factor (TNF) Activity. […] The solutions containing dispersed bacteria were then plated onto agar plates and colony forming units were counted after incubation at 37° C. overnight.

## peppermint oil
  3T3 fibroblast cell viability in co-culture: toxic effects
